Values quoted from earlier work, collected in patent publication US20090214619A1, “IMPLANT FOR INTRAOCULAR DRUG DELIVERY” (THERAKINE LTD., priority 2004, published 2009).

Experiments:
[1] = tested on: degenerative diseases such as choroidal neovascularization, macular edema, macular degeneration, branch retinal vein occlusion; conditions: patients with choroidal neovascularization
HSP induced uveitis = conditions: rats with HSP induced uveitis; decreased from 68% without treatment

Molecule: Infliximab: chimeric Anti TNF Mab
- effect on vision [1]: improve vision

B1: IL-4: pleiotropic cytokine produced by activated T cells, mast cells, and basophiles (protein, UniProt P05112 25-153, looked up)
Interleukin-4: HKCDITLQEIIKTLNSLTEQKTLCTELTVTDIFAASKNTTEKETFCRAATVLRQFYSHHEKDTRCLGATAQQFHRHKQLIRFLKRLDRNLWGLAGLNSCPVKEANQSTLENFLERLKTIMREKYSKCSS
- development of uveitis (HSP induced uveitis): 30.4%
